Measurements published in patent publication US9605002B2, “5,5-heteroaromatic anti-infective compounds” (priority 2012, dated 2017).
≈ marks a conversion by molar mass, not a printed value. Where “and” joins values, the source holds several entries; their conditions need not be identical. Identical values can stand only once.

Assays:
[1] = test system: Drug sensitive Mtb clinical strain #1; assay: MIC against clinical Mtb strains; assay type: cell-based; conditions: Mycobacterium tuberculosis, 7H9/glucose/glycerol/BSA/0.05% Tween 80, average of three
[2] = test system: Drug sensitive Mtb clinical strain #2; assay: MIC against clinical Mtb strains; assay type: cell-based; conditions: Mycobacterium tuberculosis, 7H9/glucose/glycerol/BSA/0.05% Tween 80, average of three
[3] = test system: M. tuberculosis (Mtb) H37Rv; assay: Microplate Alamar Blue Assay (MABA), 7H12 media, replicating Mtb; assay type: cell-based; conditions: Mycobacterium tuberculosis, 7H12 media (no glycerol), read-out: 7H12 media: Replicating H37Rv Mtb: MIC 90
[4] = test system: M. tuberculosis (Mtb) H37Rv; assay: Microplate Alamar Blue Assay (MABA), GAS media, replicating Mtb; assay type: cell-based, Mycobacterium tuberculosis; conditions: for MIC90: Mycobacterium tuberculosis, GAS (glycerol-alanine-salt) media, replicating H37Rv, read-out: GAS media: replicating H37Rv Mtb: MIC 90
[5] = test system: VERO kidney epithelial cells; assay: VERO toxicity assessment; conditions: for IC50: Chlorocebus sabaeus, Vero, read-out: VERO: IC50

Row | Compound | MIC90 [1] | MIC90 [2] | MIC90 [3] [µM] | MIC90 [4] [µM] | in vitro activity against H37Rv TB ([4]; statement in words, medium not stated) | IC50 [5] [µM] | therapeutic window ([5]; statement in words)
1 | Cc1cn2c(C(=O)NCc3ccc(Oc4ccc(F)cc4)cc3)c(C)nc2s1 [ND-010081] | < 0.01 µM and < 0.025 µg/mL | < 0.025 µg/mL and < 0.01 µM | < 2 | < 2 | comparable to the current clinical candidates | 2 to 10 | sufficient therapeutic window for in vivo treatment
2 | Cc1nc2sc(F)cn2c1C(=O)NCc1cccc(Cl)c1 [ND-020056] | – | – | 2 to 10 (≈ 0.648 to 3.24 µg/mL) | < 2 | – | < 32 | –
3 | Cc1cn2c(C(=O)NCc3cccc(Oc4ccc(C(F)(F)F)cc4)c3)c(C)nc2s1 [ND-020057] | – | – | < 2 | < 2 | – | < 32 | –
4 | Cc1cn2c(C(=O)NCc3cccc(Oc4ccc(Cl)cc4)c3)c(C)nc2s1 [ND-020058] | – | – | < 2 | < 2 | – | 20 to 32 | –
5 | Cc1cn2c(C(=O)NCc3cccc(Oc4ccc(F)cc4)c3)c(C)nc2s1 [ND-020059] | – | – | < 2 | < 2 | – | 20 to 32 | –
6 | Cc1cn2c(C(=O)NCc3ccc(Oc4ccc(Cl)cc4)cc3)c(C)nc2s1 [ND-020060] | – | – | < 2 | < 2 | – | 10 to 20 | –
7 | Cc1nc2sc(F)cn2c1C(=O)NCc1ccc2c(c1)OCC2 [ND-020061] | – | – | < 2 | < 2 | – | < 32 | –
8 | Cc1nc2sc(Cl)cn2c1C(=O)NCc1ccc2c(c1)OCC2 [ND-020062] | – | – | < 2 | < 2 | – | < 32 | –
9 | Cc1nc2sc(C(F)(F)F)cn2c1C(=O)NCc1ccc2c(c1)OCC2 [ND-020063] | – | – | 2 to 10 (≈ 0.763 to 3.81 µg/mL) | < 2 | – | < 32 | –
10 | Cc1cn2c(C(=O)NCc3ccc(-n4cccn4)cc3)c(C)nc2s1 [ND-020064] | – | – | < 2 | < 2 | – | 20 to 32 | –
11 | Cc1cn2c(C(=O)NCc3ccc(-n4cnnc4)cc3)c(C)nc2s1 [ND-020065] | – | – | 2 to 10 (≈ 0.705 to 3.52 µg/mL) | 2 to 10 | – | 20 to 32 | –
12 | Cc1cn2c(C(=O)NCc3ccc4nc(-c5ccc(F)cc5)oc4c3)c(C)nc2s1 [ND-020066] | – | – | 2 to 10 (≈ 0.841 to 4.2 µg/mL) | < 2 | – | 20 to 32 | –
13 | CCc1nc2sc(C)cn2c1C(=O)NCc1ccc2nc(-c3ccc(F)cc3)oc2c1 [ND-020067] | – | – | 2 to 10 (≈ 0.869 to 4.34 µg/mL) | < 2 | – | 20 to 32 | –
14 | Cc1cn2c(C(=O)NCc3cccc(N4CC(C)CC(C)C4)c3)c(C)nc2s1 (stereo not drawn) [ND-020068] | – | – | < 2 | < 2 | – | < 32 | –
15 | Cc1cn2c(C(=O)NCc3ccc(N4CC(C)CC(C)C4)cc3)c(C)nc2s1 (stereo not drawn) [ND-020069] | – | – | < 2 | < 2 | – | 20 to 32 | –
16 | Cc1cn2c(C(=O)NCc3ccc(N4CCC(=O)CC4)cc3)c(C)nc2s1 [ND-020070] | – | – | 2 to 10 (≈ 0.765 to 3.82 µg/mL) | < 2 | – | 20 to 32 | –
17 | Cc1cn2c(C(=O)NCc3ccc(N4CCCC4)cc3)c(C)nc2s1 [ND-020071] | – | – | < 2 | < 2 | – | 20 to 32 | –
18 | Cc1cn2c(C(=O)NCc3cccc(N4CCC(=O)CC4)c3)c(C)nc2s1 [ND-020072] | – | – | < 2 | < 2 | – | < 32 | –
19 | Cc1cn2c(C(=O)NCc3cccc(N4CCCC4)c3)c(C)nc2s1 [ND-020073] | – | – | < 2 | < 2 | – | < 32 | –
20 | Cc1cn2c(C(=O)NCc3ccc(N4CC(C)OC(C)C4)cc3)c(C)nc2s1 (stereo not drawn) [ND-020074] | – | – | < 2 | < 2 | – | 20 to 32 | –
21 | Cc1cn2c(C(=O)NCc3cccc(N4CC(C)OC(C)C4)c3)c(C)nc2s1 (stereo not drawn) [ND-020075] | – | – | < 2 | < 2 | – | < 32 | –
22 | Cc1cn2c(C(=O)NCc3ccc(F)c(N4CCOCC4)c3)c(C)nc2s1 [ND-020076] | – | – | < 2 | < 2 | – | < 32 | –
23 | Cc1cn2c(C(=O)NCc3ccc4ccn(C)c4c3)c(C)nc2s1 [ND-020077] | – | – | < 2 | < 2 | – | < 32 | –
24 | CCc1nc2sc(C)cn2c1C(=O)NCc1ccc2ccn(C)c2c1 [ND-020078] | – | – | < 2 | < 2 | – | < 32 | –
25 | Cc1cn2c(C(=O)NCc3ccc4c(ccn4C)c3)c(C)nc2s1 [ND-020079] | – | – | < 2 | < 2 | – | < 32 | –
26 | Cc1cn2c(C(=O)NCc3ccc4c(ccn4C)c3)c(C(F)(F)F)nc2s1 [ND-020080] | – | – | < 2 | < 2 | – | < 32 | –
27 | Cc1cn2c(C(=O)NCCc3ccc(Cl)cc3)c(C)nc2s1 [ND-020081] | – | – | < 2 | < 2 | – | < 32 | –
28 | O=[N+]([O-])c1cn2c(n1)OC[C@@H](OCc1ccc(OC(F)(F)F)cc1)C2 [PA-824, reference compound] | 0.45 µM to 0.86 µM and 0.16 µg/mL to 0.31 µg/mL | > 13.9 µM and > 5 µg/mL | – | – | – | – | –
